Experiments:
MOLT-4 cells [1] = assay: Annexin V-FITC/PI flow cytometric analysis of apoptosis; type: cell-based, Human; conditions: 6 hrs
Protocol: Events of apoptosis were analyzed using Annexin V-FITC Apoptosis Detection Kit (A 2214 Sigma Aldrich, USA). Human leukemia Cells (MOLT-4, 1x10^6 cells/ml) in 6-well plate were treated with Compound 3f (3 and 5µg/ml), camptothecin (5µM) and incubated for 6 hrs. After incubation, the cells were centrifuged, rinsed with PBS twice and re-suspended in binding buffer (10 mM HEPES/NaOH, pH 7.5 containing 0.14M NaCl and 25 mM CaCl2). An aliquot (500 µl) of suspension was stained with of Annexin V-FITC (5 µl) and Propidium Iodide (10 µl). The cells were stored for 10 minutes at room temperature in the dark and then analyzed by BD-LSR flow cytometer (Becton Dickinson, USA) at two wavelengths to measure fluorescence for of Annexin V & PI binding at 515 and 639 nm.

HL-60 cells = assay: as above; type: cell-based, human; conditions: 24 h
Protocol: Induction of apoptosis in vitro by Compound 3b and 3f was further determined in HL-60 cells by flow cytometric assay using an Annexin V-FITC Apoptosis Detection Kit (BD Biosciences Pharmingen, San Diego, USA). Camptothecin was included in the study for comparison. Exponentially growing HL-60 cells in complete RPMI-1640 media (100 µl of 5×10^6) were plated in six well plates. 10 µl of each Compound in DMSO (5 and 10 µM concentrations) was added to the wells followed by the addition of required media (total volume 1ml). Plates were incubated at 37°C for 24 h. The cells were centrifuged at room temperature at 1500 rpm for 5 min. The pellet was washed twice with cold PBS and was re-suspended in the binding buffer (1X, 100µl) provided in the Kit. The cells were stained with Annexin V-FITC (5 µl) and Propidium Iodide [PI] (5µl) and incubated for 15 min in the dark at 25°C. Next 400µl of binding buffer was added to each tube and analyzed on a FACScan flow cytometer (Becton Dickinson, Mountainview, CA) using Cell Quest software. Cells stained with both Annexin-V-FITC and PI, containing DMSO as vehicle was used as stained control. Cells that were annexin^+ /Pr [Lower right quadrant (LR)] and annexin^+/PI^+ [Upper right quadrant (UR)] were considered as early apoptotic and late apoptotic respectively.

MOLT-4 cells [2] = assay: Flow cytometric DNA cell cycle analysis (sub-G1 fraction); type: cell-based, Human; conditions: 24 hr
Protocol: Effect of DNA content by cell cycle phase distribution was assessed using MOLT-4 cells. […] The incubation period was 3 hrs in case of camptothecin and 24 hrs. in rest of the treatments. The cells were then washed twice with ice-cold PBS, harvested, fixed with ice-cold PBS in 70% ethanol, and stored at -20 °C for 30 min. After fixation, the cells were incubated with RNase A (0.1 mg/ml) at 37°C for 30 min, stained with propidium iodide (50 µg/ml) for 30 min on ice in dark, and then measured for DNA content using BD-LSR Flow cytometer (Becton Dickinson, USA) equipped with electronic doublet, discrimination capability using blue (488nm) excitation from argon laser. Data were collected in list mode on 10,000 events for FL2-A vs. FL2-W and analyzed using Mod Fit 2.0 software (Fig 4). […] The sub-G1 fractions for control and camptothecin were 0.64 (Fig. 4A) and 11.92 % (Fig. 4B).

S-180 = assay: In vivo anticancer activity: increase in median survival time; design: species or system Swiss albino male mice; conditions: S-180, 7 injns.
U-937 lymphoma = assay: MTT in vitro cytotoxicity; conditions: Homo sapiens, U-937, 96 h, read-out: IC50 value Lymphoma U-937
[3] = test system: Ehrlich ascites carcinoma (EAC); assay: In vivo anticancer activity: increase in median survival time; design: species or system Swiss albino male mice; conditions: 60 mg/kg i.p., 7 injns., days 1-7
caspase-3 = assay: Caspase-3 colorimetric assay in MOLT-4 cells; type: cell-based, Human; conditions: 5 µg/ml, 12 hrs
Protocol: Caspase 3 activity was measured by using caspase-3 colorimetric Assay kit (R&D Systems USA). […] Cell lysates were mixed with 10µL of dithiothreitol (DTT) and 50µL reaction buffer (2X) containing 5 µL DEVD-pNA, a caspase-3 substrate, and incubated upto 24 hr at 37°C. Additional controls were included in this assay containing no cell lysate without substrate Enzyme-catalyzed release of pNA was monitored using a microplate reader at 405 nm (Fig. 2). Likewise, Caspase 6 activity was also measured using caspase-6 colorimetric Assay kit (R&D Systems USA). However, the enzyme and enzyme substrate (VEID-pNA) were different (Fig. 3). Treatment of the cells with Compound 3f induced caspase-3/6 activities. […] (Fig 2).

HL-60 human leukemia = assay: MTT in vitro cytotoxicity; conditions: Homo sapiens, HL-60, 96 h, read-out: IC50 value Leukemia HL-60

Structure (SMILES): O=C1c2cccc3c([N+](=O)[O-])ccc(c23)C(=O)N1CCCCl [Compound 3f, 6-Nitro-2-[3-(Chloropropyl)]-1H-benz[de]isoquinoline-1,3-dione]
- late apoptotic cells (Annexin V^+/PI^+) (MOLT-4 cells [1]; 3 µg/ml): 1.05%
- total apoptotic cells (MOLT-4 cells [1]; 3 µg/ml): 7.43%
- late apoptotic cells (Annexin V^+/PI^+) (MOLT-4 cells [1]; 5 µg/ml): 4.82%
- total apoptotic cells (MOLT-4 cells [1]; 5 µg/ml): 18.44%
- early apoptotic cells (Annexin V^+/PI^-), LR (HL-60 cells; 5 µM): 16.4%
- late apoptotic cells (Annexin V^+/PI^+), UR (HL-60 cells; 5 µM): 31.5%
- total apoptotic cells (apoptotic cell population) (HL-60 cells; 5 µM): 47.9%
- early apoptotic cells (Annexin V^+/PI^-), LR (HL-60 cells; 10 µM): 11.5%
- late apoptotic cells (Annexin V^+/PI^+), UR (HL-60 cells; 10 µM): 81.0%
- total apoptotic cells (apoptotic cell population) (HL-60 cells; 10 µM): 92.5%
- sub-G1 fraction (apoptotic) (MOLT-4 cells [2]; 1.5 µg/ml): 4.52%
- sub-G1 fraction (apoptotic) (MOLT-4 cells [2]; 5 µg/ml): 5.86%
- MST (S-180; 30 mg/kg i.p., days 1-7): 25.0 days
- MST (S-180; 60 mg/kg i.p., days 1-7): 29.0 days
- MST (S-180; 60 mg/kg i.p., days 5-11): 21.0 days
- IC50 (U-937 lymphoma): 1950 nM
- MST [3]: 34.0 days
- Caspase-3 activity (caspase-3): maximum at 5 µg/ml at 12 hrs
- IC50 (HL-60 human leukemia): 300 nM

From patent EP2118065B1, “Substituted 1H-benz[de]isoquinoline-1,3-diones” (priority 2007, dated 2008)
